# Source: the OligoGym collection
# HELM strings list units from the 5' end as sugar, base in round brackets, then linkage (d deoxyribose, r ribose, m 2'-O-methyl, p phosphodiester). Strings are as the collection lists them, not checked against the first reports. ss, as = sense and antisense strand; [s4r] = 4'-thioribose; [fl2r] = 2'-fluoro
# Settings: siRNA
# Note: test system not given here.
row,Substance,target mRNA knockdown
1,RNA1{r(A)p.r(G)p.r(A)p.r(A)p.r(G)p.[fl2r](U)p.r(A)p.r(C)p.[fl2r](C)p.r(A)p.r(G)p.r(G)p.r(A)p.r(G)p.r(G)p.r(C)p.r(G)p.r(U)p.r(U)p.r(T)p.r(T)}|RNA2{r(A)p.r(A)p.r(C)p.r(G)p.r(C)p.r(C)p.r(U)p.r(C)p.r(C)p.[fl2r](U)p.r(G)p.r(G)p.[fl2r](U)p.r(A)p.r(C)p.r(U)p.r(U)p.r(C)p.r(U)p.r(T)p.r(T)}$$$RNA1{StrandType:ss}|RNA2{StrandType:as}$,57%
2,RNA1{r(U)p.r(C)p.r(C)p.m(U)p.r(A)p.r(G)p.r(C)p.m(U)p.r(G)p.r(U)p.r(C)p.r(U)p.m(U)p.r(G)p.r(U)p.r(C)p.r(C)p.r(C)p.r(U)p.r(T)p.r(T)}|RNA2{r(A)p.r(G)p.r(G)p.r(G)p.r(A)p.m(C)p.r(A)p.r(A)p.r(G)p.r(A)p.m(C)p.r(A)p.r(G)p.r(C)p.m(U)p.r(A)p.r(G)p.r(G)p.r(A)p.r(T)p.r(T)}$$$RNA1{StrandType:ss}|RNA2{StrandType:as}$,68%
3,RNA1{[s4r](C)p.[s4r](G)p.[s4r](U)p.[s4r](A)p.r(C)p.r(G)p.r(C)p.r(G)p.r(G)p.r(A)p.r(A)p.r(U)p.r(A)p.r(C)p.r(U)p.r(U)p.r(C)p.r(G)p.r(A)p.r(T)p.r(T)}|RNA2{r(U)p.r(C)p.r(G)p.r(A)p.r(A)p.r(G)p.r(U)p.r(A)p.r(U)p.r(U)p.r(C)p.r(C)p.r(G)p.r(C)p.r(G)p.r(U)p.r(A)p.r(C)p.r(G)p.r(T)p.r(T)}$$$RNA1{StrandType:ss}|RNA2{StrandType:as}$,94.2%
4,RNA1{m(U)p.r(A)p.m(A)p.r(A)p.m(G)p.r(C)p.m(U)p.r(G)p.m(G)p.r(A)p.m(A)p.r(A)p.m(G)p.r(G)p.m(G)p.r(A)p.m(C)p.r(G)p.m(G)p.r(T)p.r(T)}|RNA2{r(C)p.r(C)p.r(G)p.r(U)p.r(C)p.r(C)p.r(C)p.r(U)p.r(U)p.r(U)p.r(C)p.r(C)p.m(A)p.r(G)p.r(C)p.r(U)p.r(U)p.r(U)p.m(A)p.r(T)p.r(T)}$$$RNA1{StrandType:ss}|RNA2{StrandType:as}$,29%
5,RNA1{r(G)p.r(G)p.r(C)p.r(C)p.r(U)p.r(U)p.r(U)p.r(C)p.r(U)p.r(C)p.r(U)p.r(C)p.r(U)p.r(A)p.r(G)p.r(A)p.r(U)p.r(A)p.r(U)p.r(T)p.r(T)}|RNA2{r(A)p.m(U)p.r(A)p.r(U)p.r(C)p.m(U)p.r(A)p.r(G)p.r(A)p.r(G)p.r(A)p.r(G)p.r(A)p.r(A)p.r(A)p.r(G)p.r(G)p.r(C)p.r(C)p.r(T)p.r(T)}$$$RNA1{StrandType:ss}|RNA2{StrandType:as}$,90%
6,RNA1{m(C)p.r(U)p.m(C)p.r(C)p.m(C)p.r(C)p.m(A)p.r(G)p.m(U)p.r(C)p.m(U)p.r(C)p.m(U)p.r(C)p.m(U)p.r(U)p.m(A)p.r(A)p.m(A)p.r(T)p.r(T)}|RNA2{r(U)p.r(U)p.r(U)p.r(A)p.r(A)p.r(G)p.r(A)p.r(G)p.r(A)p.r(G)p.r(A)p.r(C)p.r(U)p.r(G)p.r(G)p.r(G)p.r(G)p.r(A)p.r(G)p.r(T)p.r(T)}$$$RNA1{StrandType:ss}|RNA2{StrandType:as}$,51%
7,RNA1{m(A)p.r(U)p.m(C)p.r(A)p.m(C)p.r(A)p.m(A)p.r(A)p.m(C)p.r(C)p.m(C)p.r(C)p.m(U)p.r(A)p.m(G)p.r(A)p.m(G)p.r(G)p.m(G)p.r(T)p.r(T)}|RNA2{r(C)p.r(C)p.r(C)p.r(U)p.r(C)p.r(U)p.m(A)p.r(G)p.r(G)p.r(G)p.r(G)p.r(U)p.r(U)p.r(U)p.r(G)p.r(U)p.r(G)p.m(A)p.r(U)p.r(T)p.r(T)}$$$RNA1{StrandType:ss}|RNA2{StrandType:as}$,35%
8,RNA1{m(A)p.m(A)p.m(G)p.m(G)p.m(A)p.m(G)p.m(A)p.m(U)p.m(C)p.m(A)p.m(A)p.m(C)p.m(A)p.m(U)p.m(U)p.m(U)p.m(U)p.m(C)p.m(A)p.r(T)p.r(T)}|RNA2{r(U)p.r(G)p.r(A)p.r(A)p.r(A)p.r(A)p.r(U)p.r(G)p.r(U)p.r(U)p.r(G)p.r(A)p.r(U)p.r(C)p.r(U)p.r(C)p.r(C)p.m(U)p.m(U)p.r(T)p.r(T)}$$$RNA1{StrandType:ss}|RNA2{StrandType:as}$,77%
9,RNA1{m(A)p.m(A)p.m(G)p.m(G)p.m(A)p.m(G)p.m(A)p.m(U)p.m(C)p.m(A)p.m(A)p.m(C)p.m(A)p.m(U)p.m(U)p.m(U)p.m(U)p.m(C)p.m(A)p.r(T)p.r(T)}|RNA2{m(U)p.r(G)p.r(A)p.r(A)p.r(A)p.r(A)p.m(U)p.r(G)p.r(U)p.r(U)p.r(G)p.r(A)p.m(U)p.m(C)p.m(U)p.m(C)p.m(C)p.m(U)p.m(U)p.r(T)p.r(T)}$$$RNA1{StrandType:ss}|RNA2{StrandType:as}$,29%
10,RNA1{r(A)p.r(A)p.r(C)p.r(C)p.r(C)p.r(A)p.r(C)p.r(C)p.r(A)p.r(C)p.r(A)p.r(G)p.r(C)p.m(U)p.r(A)p.r(G)p.r(A)p.r(A)p.r(C)p.m(U)p.m(U)}|RNA2{r(A)p.r(A)p.r(G)p.r(U)p.r(U)p.r(C)p.r(U)p.r(A)p.r(G)p.r(C)p.r(U)p.r(G)p.r(U)p.r(G)p.r(G)p.r(U)p.r(G)p.r(G)p.r(G)p.r(U)p.r(U)}$$$RNA1{StrandType:ss}|RNA2{StrandType:as}$,81%
11,RNA1{d(G)p.d(C)p.d(A)p.d(G)p.d(C)p.d(A)p.d(C)p.d(G)p.d(A)p.d(C)p.d(U)p.d(U)p.d(C)p.d(U)p.d(U)p.d(C)p.d(A)p.d(A)p.d(G)p.r(T)p.r(T)}|RNA2{r(C)p.r(U)p.r(U)p.r(G)p.r(A)p.r(A)p.r(G)p.r(A)p.r(A)p.r(G)p.r(U)p.r(C)p.r(G)p.r(U)p.r(G)p.r(C)p.r(U)p.r(G)p.r(C)p.r(T)p.r(T)}$$$RNA1{StrandType:ss}|RNA2{StrandType:as}$,38%
12,RNA1{r(A)p.r(C)p.r(C)p.r(G)p.r(A)p.r(C)p.r(G)p.r(A)p.r(U)p.r(U)p.r(C)p.r(U)p.r(U)p.r(C)p.m(U)p.r(A)p.r(C)p.r(U)p.r(C)p.r(T)p.r(T)}|RNA2{r(G)p.r(A)p.r(G)p.m(U)p.r(A)p.r(G)p.r(A)p.r(A)p.r(G)p.m(A)p.m(A)p.r(U)p.r(C)p.r(G)p.r(U)p.r(C)p.r(G)p.r(G)p.r(U)p.r(T)p.r(T)}$$$RNA1{StrandType:ss}|RNA2{StrandType:as}$,67%
13,RNA1{r(A)p.r(U)p.r(C)p.r(G)p.r(C)p.[fl2r](U)p.r(G)p.r(C)p.r(U)p.r(C)p.r(C)p.r(U)p.r(C)p.r(C)p.r(U)p.r(C)p.r(C)p.r(U)p.r(C)p.r(T)p.r(T)}|RNA2{r(G)p.r(A)p.r(G)p.r(G)p.r(A)p.r(G)p.r(G)p.r(A)p.r(G)p.r(G)p.r(A)p.r(G)p.[fl2r](C)p.r(A)p.r(G)p.r(C)p.r(G)p.r(A)p.r(U)p.r(T)p.r(T)}$$$RNA1{StrandType:ss}|RNA2{StrandType:as}$,71%
14,RNA1{[s4r](A)p.[s4r](A)p.[s4r](A)p.[s4r](C)p.r(A)p.r(U)p.r(G)p.r(C)p.r(A)p.r(G)p.r(A)p.r(A)p.r(A)p.r(A)p.r(U)p.[s4r](A)p.[s4r](C)p.[s4r](C)p.[s4r](U)p.r(T)p.r(T)}|RNA2{[s4r](C)p.[s4r](A)p.r(G)p.r(C)p.r(A)p.r(U)p.r(U)p.r(U)p.r(U)p.r(C)p.r(U)p.r(G)p.r(C)p.r(A)p.r(U)p.r(G)p.r(U)p.[s4r](U)p.[s4r](U)p.r(T)p.r(T)}$$$RNA1{StrandType:ss}|RNA2{StrandType:as}$,80.8%
